Results taken from patent US9376440B2, “Pyrrolobenzodiazepines as antiproliferative agents” (MEDIMMUNE LIMITED, priority 2012, dated 2016).
Like-named read-outs stand apart in the source and are kept apart here.

What was measured:
[1] = tested on: A431 (epidermoid); assay: MTT cytotoxicity assay, A431; format: cell-based; conditions: Homo sapiens, read-out: IC50 (nM) A431
Description: (§1) The cytotoxicity potential of the compounds of the invention 16c-h was compared with the comparative compounds 16a, 16b and GWL-78 in a number of tumour cell lines and the non-cancer cell line WI38 after 96 hours exposure using the MTT (3-(4,5-Dimethylthiazol-2-yl)-2,5-diphenyltetrazolium bromide) colorimetric assay, as described below.
(§2) A panel of several types of human cancer cell lines including epidermoid (A431), lung (A549), ovarian (A2780) and breast (MCF7 and MDAMB-231), as well as the non-tumour cell line WI38, were used to determine the cytotoxicity of the compounds. The cells were grown in normal conditions at 37° C. under a 5% CO2 humidified atmosphere, either in Dulbecco's Modified Eagle Medium or Modified Eagle Medium (depending on the cell line), supplemented with 10% fetal bovine serum (Biosera, UK), 1% L-glutamine, 1% non-essential amino acids and 0.05% hydrocortisone (Gibco, Invitrogen, USA). Cells were then seeded into 96-well plates in a total volume of 160 μl, and allowed to reach a 30-40% degree of confluence before starting the experiment. The ligands were dissolved in sterilized ultrapure water at a maximum concentration of 100 μM, and serial decimal dilutions prepared. These were added to the cells in a volume of 40 μl. After 96 hours of continuous exposure to each ligand, the cytotoxicity was determined by the MTT (3-(4,5-Dimethylthiazol-2-yl)-2,5-diphenyltetrazolium bromide) (Lancaster Synthesis Ltd, UK) colorimetric assay (Skehan P, S. R., et al., Journal of the National Cancer Institute 1990, 82, 1107). Absorbance was quantified by spectrophotometry at A=570 nm (ELx808, Bio-Tek Instruments, Inc., USA). IC50 values were calculated by a dose-response analysis using the Origin 6.0™ software.

[2] = tested on: A549 (lung); assay: MTT cytotoxicity assay, A549; format: cell-based; conditions: Homo sapiens, read-out: IC50 (nM) A549
Description: as §1, §2

[3] = tested on: A2780 (ovarian); assay: MTT cytotoxicity assay, A2780; format: cell-based; conditions: Homo sapiens, read-out: IC50 (nM) A2780
Description: as §1, §2

[4] = tested on: MCF7 (breast); assay: MTT cytotoxicity assay, MCF7; format: cell-based; conditions: Homo sapiens, read-out: IC50 (nM) MCF7
Description: as §1, §2

[5] = tested on: MDAMB-231 (breast); assay: MTT cytotoxicity assay, MDAMB-231; format: cell-based; conditions: Homo sapiens, read-out: IC50 (nM) MDAMB-231
Description: as §1, §2

[6] = tested on: Mia Paca 2; assay: MTT cytotoxicity assay, Mia Paca 2; format: cell-based; conditions: Homo sapiens, read-out: IC50 (nM) Mia Paca 2
Description: as §1, §2

[7] = tested on: WI38; assay: MTT cytotoxicity assay, non-tumour cell line WI38; format: cell-based; conditions: Homo sapiens, read-out: IC50 (nM) WI38
Description: as §1, §2

[8] = tested on: primary CLL cells; assay: Annexin V/propidium iodide flow cytometry assay in primary CLL cells; format: cell-based; conditions: CLL cell
Description: The cytotoxicity potential of the compounds of the invention 16c-h was also compared with the comparative compounds 16a, 16b and GWL-78 in a primary CLL cell lines using the Annexin V assay (van Engeland, M, et al., Cytometry 1998, 31, 1-9), as described below.
Freshly isolated peripheral blood CLL cells (1×10^8 mL^−1) were cultured in RPMI medium (Invitrogen, Paisley, U.K.) supplemented with 100 U/mL penicillin, […] streptomycin, and 10% fetal calf serum. The cells were incubated at 37° C. in a humidified 5% CO2 atmosphere in the presence of each compound. All compounds were dissolved in DMSO and were evaluated in serial dilutions against the primary CLL cells. In addition, control cultures were carried out to which no drug was added. The cytotoxic effects of the compounds were quantified using an annexin V/propidium iodide flow cytometry assay (Bender Medsystems, Vienna, Austria). All assays were performed in duplicate, and LD50 values were calculated from sigmoidal dose-response curves using the Prism 6.0 software (Graphpad Software Inc., San Diego, Calif.). The sigmoidal dose-response curves were derived by plotting log [compound concentration] against the percentage apoptosis induced by that concentration. A wide range of concentrations were used to establish the biologically active range for each individual compound.

[9] = MTD (maximum tolerated dose) study, intraperitoneal dosing; format: in vivo, mouse; conditions: Swiss-Webster mice, IP, 400 μg/Kg/day
Description: Initially a small scale study was carried out to determine the MTD (maximum tolerated dose) in Swiss-Webster mice using intraperitoneal dosing (IP). […] As 16f provided a marginally better toxicity profile in the MTD study, it was decided to carry out more extensive in vivo tumour xenograft studies on this molecule.

[10] = tested on: DNA; conditions: cited from earlier work

SMILES	IC50 ([1]; A-431, 96 h) [nM]	IC50 ([2]; A549, 96 h) [nM]	IC50 ([3]; A2780, 96 h) [nM]	IC50 ([4]; MCF7, 96 h) [nM]	IC50 ([5]; MDA-MB-231, 96 h) [nM]	IC50 ([6]; MIA PaCa-2, 96 h) [nM]	IC50 ([7]; WI-38, 96 h) [nM]	IC50 [8] [nM]	weight loss [9]	IC50 ([1]; A-431, 96 hours exposure, MTT) [nM]	IC50 ([2]; A549, 96 hours exposure, MTT) [nM]	IC50 ([3]; A2780, 96 hours exposure, MTT) [nM]	IC50 ([4]; MCF7, 96 hours exposure, MTT) [nM]	IC50 ([5]; MDA-MB-231, 96 hours exposure, MTT) [nM]	IC50 ([6]; MIA PaCa-2, 96 hours exposure, MTT) [nM]	IC50 ([7]; WI-38, 96 hours exposure, MTT, non-cancer cell line) [nM]	IC50 ([8]; primary CLL cells, annexin V/propidium iodide, apoptosis, read-out: IC50) [nM]	increase in DNA binding affinity compared to constituent PBD and dipyrrole components [10]
COC(=O)c1cc(NC(=O)c2cc(-c3ccc(NC(=O)CCCOc4cc5c(cc4OC)C(=O)N4CCC[C@H]4C=N5)cc3)cn2C)cn1C [Compound 16c, (S)-methyl 4-(4-(4-(4-(7-methoxy-5-oxo-2,3,5,11a-tetrahydro-1H-pyrrolo[2,1-c][1,4]benzodiazepine-8-yloxy)butanamido)phenyl)-1-methyl-1H-pyrrole-2-carboxamido)-1-methyl-1H-pyrrole-2-carboxylate]	4.6	0.019	0.96	1.7	2.7	0.34	426	2.1										
COC(=O)c1cc(-c2ccc(NC(=O)c3cc(NC(=O)CCCOc4cc5c(cc4OC)C(=O)N4CCC[C@H]4C=N5)cn3C)cc2)cn1C [Compound 16e, (S)-methyl 4-(4-(4-(4-(7-methoxy-5-oxo-2,3,5,11a-tetrahydro-1H-pyrrolo[2,1-c][1,4]benzodiazepine-8-yloxy)butanamido)-1-methyl-1H-pyrrole-2-carboxamido)phenyl)-1-methyl-1H-pyrrole-2-carboxylate]	0.0056	0.056	0.013			0.0013	474	0.098	minor weight loss									
COC(=O)c1cc(NC(=O)c2cc(NC(=O)c3cc(-c4ccc(NC(=O)CCCOc5cc6c(cc5OC)C(=O)N5CCC[C@H]5C=N6)cc4)cn3C)cn2C)cn1C [Compound 16g, (S)-methyl 4-(4-(4-(4-(4-(7-methoxy-5-oxo-2,3,5,11a-tetrahydro-1H-pyrrolo[2,1-c][1,4]benzodiazepine-8-yloxy)butanamido)phenyl)-1-methyl-1H-pyrrole-2-carboxamido)-1-methyl-1H-pyrrole-2-carboxamido)-1-methyl-1H-pyrrole-2-carboxylate]	0.86	2.3	0.24	0.31	0.59	0.31	41.3	0.96										
COC(=O)c1cc(-c2ccc(NC(=O)CCCOc3cc4c(cc3OC)C(=O)N3CCC[C@H]3C=N4)cc2)cn1C [Compound 16a, (S)-methyl 4-(4-(4-(7-methoxy-5-oxo-2,3,5,11a-tetrahydro-1H-pyrrolo[2,1-c][1,4]benzodiazepine-8-yloxy)butanamido)phenyl)-1-methyl-1H-pyrrole-2-carboxylate]	2.31	7.5	1.87	1.91	2.11	1.2	160	6.2										
COC(=O)c1cc(-c2ccc(NC(=O)c3cc(-c4ccc(NC(=O)CCCOc5cc6c(cc5OC)C(=O)N5CCC[C@H]5C=N6)cc4)cn3C)cc2)cn1C [Compound 16b, (S)-methyl 4-(4-(4-(4-(4-(7-methoxy-5-oxo-2,3,5,11a-tetrahydro-1H-pyrrolo[2,1-c][1,4]benzodiazepine-8-yloxy)butanamido)phenyl)-1-methyl-1H-pyrrole-2-carboxamido)phenyl)-1-methyl-1H-pyrrole-2-carboxylate]	2.91	0.54	0.56	0.9	0.46	0.35	159	4.7										
CCOC(=O)c1nc(NC(=O)c2cc(-c3ccc(NC(=O)CCCOc4cc5c(cc4OC)C(=O)N4CCC[C@H]4C=N5)cc3)cn2C)cn1C [Compound 16d, (S)-ethyl 4-(4-(4-(4-(7-methoxy-5-oxo-2,3,5,11a-tetrahydro-1H-pyrrolo[2,1-c][1,4]benzodiazepine-8-yloxy)butanamido)phenyl)-1-methyl-1H-pyrrole-2-carboxamido)-1-methyl-1H-imidazole-2-carboxylate]	0.19	0.47	0.15	0.37	0.45	0.11	1240	3										
COC(=O)c1cc(NC(=O)c2nc(NC(=O)c3cc(-c4ccc(NC(=O)CCCOc5cc6c(cc5OC)C(=O)N5CCC[C@H]5C=N6)cc4)cn3C)cn2C)cn1C [Compound 16h, (S)-methyl 4-(4-(4-(4-(4-(7-methoxy-5-oxo-2,3,5,11a-tetrahydro-1H-pyrrolo[2,1-c][1,4]benzodiazepine-8-yloxy)butanamido)phenyl)-1-methyl-1H-pyrrole-2-carboxamido)-1-methyl-1H-imidazole-2-carboxamido)-1-methyl-1H-pyrrole-2-carboxylate]	0.306	0.45		0.075	0.015	0.25	65.6	0.037										
COC(=O)c1ccc(NC(=O)c2ccc(NC(=O)CCCOc3cc4c(cc3OC)C(=O)N3CCC[C@H]3C=N4)n2C)n1C [GWL-78, reference compound]										0.55	6.1	0.57	0.32	0.12	2.4	41.3	1.3	up to 50 fold
